The values below come from patent US20050220907A1, “Implanted medical devices with anti-inflammatory coatings” (priority 2004, published 2005).

Data set [1] in a line: Effect of olive kernel extract on absorption of tritiated chondroitin sulfate in vivo (serum radioactivity after oral capsule). More on the design: species or system male Sprague-Dawley rats. The note with it: serum radioactivity at 8 hours. How it is done: Chondroitin sulfate was tritiated by New England Nuclear Corp. to a specific activity of 4.3 mCi/ml.
Unlabeled chondroitin sulfate was dissolved in olive kernel extract at a ratio of about 55 w/v chondroitin sulfate powder to about 450 w/v of olive kernel extract (2.9% acidity as oleic acid, 1.03% water, 0.08% hexane). To this solution was added 20.2 microcuries of the labeled chondroitin sulfate. AAA gelatin capsules were filled with the resulting solution using an aluminum template molding device.
The laboratory animals (250 g male Sprague-Dawley rats) were kept overnight without food but with free access to water. One capsule containg the above-described chondroitin sulfate-olive kernel extract solution was given to each rat per os. Control animals were given the equivalent amount of chondroitin, but without olive kernel extract. The animals were then given free access to food. Serum radioactivity was measured 8 hours thereafter in a beta scintillation counter.

The conditions of data set [2]: commercially available preparations, oral; cited from earlier work.
The nature of data set [3]: Chondroitin sulfate solubility in oils. Type of data set: physicochemical. The following applies: in codfish oil, corn oil and olive oil (from the flesh of the olive). An excerpt: Parallel experiments with codfish oil, corn oil and olive oil (from the flesh of the olive) were comtemplated, but chondroitin sulfate solubility in these oils was insufficient to meet the requirements of the experiment.

On to chondroitin sulfate, for which the “dose of labeled chondroitin sulfate that reached the circulation” value in data set [1] (control rats, one capsule per os without olive kernel extract, n=3) is on record as “about 3.9%+/−0.4%”. Also, the “dose of labeled chondroitin sulfate absorbed into the general circulation” value in data set [1] (rats, one capsule per os of chondroitin sulfate dissolved in olive kernel extract, n=4) is “about 14.3%+/−0.7%”. In data set [2], the “chondroitin sulfate absorbed orally” value is “less than 5%”. In addition, in data set [3], the “chondroitin sulfate solubility in oils” value is “insufficient”.
